Results taken from patent US11384075B2, “Quinolinone compounds” (Janssen Pharmaceutica NV, priority 2017, dated 2022).
Like-named read-outs stand apart in the source and are kept apart here.

Key:
[1] = target: T1, human FGFR3 wild type enzyme (cytoplasmic domain) (Homo sapiens, UniProt P22607); test: FGFR3 wild type mobility shift assay (enzymatic assay); assay type: biochemical; details: 75 μM ATP, 50 minutes at 30° C., Caliper EZ reader II
T1 construct: human FGFR3 wild type enzyme (cytoplasmic domain, from Carna Biosciences); purchased Carna Biosciences
T1 sequence (P22607 397-806 limits assumed): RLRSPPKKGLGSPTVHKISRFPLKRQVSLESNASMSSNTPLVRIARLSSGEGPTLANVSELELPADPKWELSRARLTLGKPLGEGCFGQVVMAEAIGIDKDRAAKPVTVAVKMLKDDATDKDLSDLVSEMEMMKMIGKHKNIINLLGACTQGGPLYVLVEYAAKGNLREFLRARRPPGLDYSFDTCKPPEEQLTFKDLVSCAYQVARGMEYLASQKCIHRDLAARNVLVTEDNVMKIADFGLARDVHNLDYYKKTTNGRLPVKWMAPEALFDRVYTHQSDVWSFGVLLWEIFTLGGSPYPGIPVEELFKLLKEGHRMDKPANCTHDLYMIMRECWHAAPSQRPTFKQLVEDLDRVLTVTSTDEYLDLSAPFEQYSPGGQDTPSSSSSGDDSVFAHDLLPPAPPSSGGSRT
Experimental: FGFR3 Wild Type Mobility Shift Assay (Enzymatic Assay)
(§1) In a final reaction volume of 25 μL, 0.04 ng/μL human FGFR3 wild type enzyme (cytoplasmic domain, from Carna Biosciences) was incubated with 75 μM ATP, 1 μM FL-peptide 30 substrate and 250 nL of testing compound (1% DMSO final) in assay buffer (100 mM HEPES pH 7.4, 10 mM MgCl2, 0.003% Brij35, 1 mM DTT). After incubation for 50 minutes at 30° C. the reaction was stopped with 10 μL of 0.5M EDTA pH 8.0, and then 25 μL of reaction mixture was transferred to reading plate and measured on Caliper EZ reader II. The substrate-product conversion rate was used as raw data for normalization and concentration-response curve (10 dose points with 4× serial dilution, starting with 10 μM) was plotted using Prism to calculate IC50 (M), pIC50 (−log IC50) and HillSlope value.

[2] = target: T2, NIH/3T3 cells overexpressing FGFR3 WT-TACC3 fusion protein (Homo sapiens, UniProt P22607); test: NIH/3T3 FGFR3 WT-TACC3 cell proliferation assay; assay type: cell-based; details: 72-hr incubation, CellTiter Glo, starting with 10 μM; read-out: NIH/3T3 FGFR3 WT-TACC3 CTG (IC50)
T2 construct: NIH/3T3 FGFR3 WT-TACC3 CTG (IC50); other: 72-hr incubation, CellTiter Glo, starting with 10 μM; fused on or other part: Q9Y6A5 (Transforming acidic coiled-coil-containing protein 3)
T2 sequence (P22607 whole entry, change not shown, the tested form may be a part): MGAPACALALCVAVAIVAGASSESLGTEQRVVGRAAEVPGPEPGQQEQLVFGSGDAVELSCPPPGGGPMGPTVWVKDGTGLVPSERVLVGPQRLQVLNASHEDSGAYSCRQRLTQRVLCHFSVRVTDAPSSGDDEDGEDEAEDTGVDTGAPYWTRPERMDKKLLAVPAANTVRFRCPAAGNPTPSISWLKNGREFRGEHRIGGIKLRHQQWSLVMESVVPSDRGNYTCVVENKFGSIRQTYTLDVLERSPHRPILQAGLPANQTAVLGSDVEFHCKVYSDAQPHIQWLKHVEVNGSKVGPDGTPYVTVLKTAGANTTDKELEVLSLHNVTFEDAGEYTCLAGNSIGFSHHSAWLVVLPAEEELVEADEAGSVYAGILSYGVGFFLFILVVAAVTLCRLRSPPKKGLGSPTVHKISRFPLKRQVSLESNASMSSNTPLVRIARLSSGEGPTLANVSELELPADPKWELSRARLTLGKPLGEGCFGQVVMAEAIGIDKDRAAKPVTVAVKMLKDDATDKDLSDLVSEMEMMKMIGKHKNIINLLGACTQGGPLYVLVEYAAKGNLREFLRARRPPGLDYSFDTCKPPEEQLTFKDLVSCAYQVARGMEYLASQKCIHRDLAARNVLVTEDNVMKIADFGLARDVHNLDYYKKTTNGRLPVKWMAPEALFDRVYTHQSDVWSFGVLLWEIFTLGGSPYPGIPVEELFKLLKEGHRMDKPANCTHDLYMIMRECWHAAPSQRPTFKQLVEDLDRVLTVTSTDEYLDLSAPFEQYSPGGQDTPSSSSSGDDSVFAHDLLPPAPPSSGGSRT
Experimental: NIH/3T3 FGFR3 WT-TACC3 Cell Proliferation Assay
(§2) In day 1, 90 μL of cell suspension (NIH/3T3 cells overexpressing FGFR3 WT-TACC3 fusion protein) (total 30,000 cells per well in growth medium (DMEM containing 1% Glutamax, 10% FBS and 1% Pen/Strep)) was seeded in a 96-well plate and then incubated overnight at 37° C. and 5% CO2. In day 2, 10 μL of growth medium containing 10-fold stock solution of testing compound was added into cell cultures (9 dose points with 4× serial dilution, starting with 10 μM, 0.1% DMSO final). After 72-hr incubation at 37° C. and 5% CO2, in day 5 a volume of 50 μL CellTiter Glo (CTG) reagent was added into cell-containing 96-well plate and the plate was incubated at room temperature for 10 minutes before RLUs (relative light unit) were measured on a microplate reader with luminescence detection module. The RLU value was normalized to survival % and concentration-response curve was plotted using Prism to calculate IC50 (M), pIC50 (−log IC50) and HillSlope value.

[3] = target: T3, NIH/3T3 cells overexpressing FGFR3 V555M-TACC3 fusion protein (Homo sapiens, UniProt P22607, V555M, cells depend on it); test: NIH/3T3 FGFR3 V555M-TACC3 cell proliferation assay; assay type: cell-based; details: 72-hr incubation, CellTiter Glo, starting with 10 μM; read-out: NIH/3T3 FGFR3 V555M-TACC3 CTG (IC50)
T3 construct: NIH/3T3 FGFR3 V555M-TACC3 CTG (IC50); other: 72-hr incubation, CellTiter Glo, starting with 10 μM; fused on or other part: Q9Y6A5 (Transforming acidic coiled-coil-containing protein 3)
T3 sequence (P22607 whole entry V555M, the tested form may be a part): as the sequence (P22607 whole entry, change not shown, the tested form may be a part) above, with V555M counted along it
Experimental: NIH/3T3 FGFR3 V555M-TACC3 Cell Proliferation Assay
as §2, with “V555M-TACC3” for “WT-TACC3”

[4] = target: T4, human FGFR3 V555M enzyme (cytoplasmic domain carrying V555M mutation) (Homo sapiens, UniProt P22607, V555M); test: FGFR3 V555M mobility shift assay (enzymatic assay); assay type: biochemical; details: 30 μM ATP, 45 minutes at 30° C., Caliper EZ reader II
T4 construct: human FGFR3 V555M enzyme (cytoplasmic domain carrying V555M mutation, from Carna Biosciences); purchased Carna Biosciences
T4 sequence (P22607 397-806 V555M limits assumed): as the sequence (P22607 397-806 limits assumed) above, with V159M counted along it
Experimental: FGFR3 V555M Mobility Shift Assay (Enzymatic Assay)
as §1, with “FGFR3 V555M” for “FGFR3 wild type”, “(cytoplasmic domain carrying V555M mutation,” for “(cytoplasmic domain,”, “with 30” for “with 75”, “for 45” for “for 50”

[5] = test system: NIH/3T3 cells transfected with the same control vector; test: NIH/3T3 mock cell proliferation assay (counter assay, general toxicity); assay type: cell-based; details: 72-hr incubation, CellTiter Glo, starting with 30 μM, counter assay for general toxicity, read-out: NIH/3T3 MOCK CTG (IC50)
Experimental: NIH/3T3 Mock Cell Proliferation Assay
as §2, with “cells transfected with the same control vector as in the above two proliferation assays)” for “cells overexpressing FGFR3 WT-TACC3 fusion protein)”, “with 3×” for “with 4×”, “with 30” for “with 10”, “μM, 0.3%” for “μM, 0.1%”

| SMILES | IC50 [1] | GI50 [2] | GI50 [3] | IC50 [4] | IC50 ([5]; Mus musculus, NIH3T3, 72 h) | IC50 [5] |
| --- | --- | --- | --- | --- | --- | --- |
| CC(Nc1c(-c2nc3ccc(N4C[C@@H](C)O[C@H](C)C4)cc3[nH]2)c(=O)[nH]c2ccccc12)c1ncccn1 (single isomer, unassigned) [Compound 37a, 3-(6-((2R,6R)-2,6-dimethylmorpholino)-1H-benzo[d]imidazol-2-yl)-4-(((S*)-1-(pyrimidin-2-yl)ethyl)amino)quinolin-2(1H)-one] | 0.478 nM | 11.7 nM | 4.18 nM | 0.326 nM | 898 nM |  |
| COC(=O)C1CN(c2ccc3nc(-c4c(N[C@@H](C)c5ccccn5)c5ccccc5[nH]c4=O)[nH]c3c2)CCO1 (single isomer, unassigned) [Compound 62, (R*)-methyl 4-(2-(2-oxo-4-(((S)-1-(pyridin-2-yl)ethyl)amino)-1,2-dihydroquinolin-3-yl)-1H-benzo[d]imidazol-6-yl)morpholine-2-carboxylate] | 2.91 nM | 389 nM | 451 nM | 1.21 nM |  | 12700 nM |
| CC(Nc1c(-c2nc3ccc(N4CCO[C@@H](C)C4)cc3[nH]2)c(=O)[nH]c2ccccc12)c1ncccn1 (single isomer, unassigned) [Compound 26a, 3-(6-((S)-2-methylmorpholino)-1H-benzo[d]imidazol-2-yl)-4-(((S*)-1-(pyrimidin-2-yl)-ethyl)amino)quinolin-2(1H)-one] | 0.317 nM | 2.22 nM | 4.3 nM | 0.178 nM | 2580 nM |  |
| CC(Nc1c(-c2nc3cc(C(F)(F)F)c(N4CCOCC4)cc3[nH]2)c(=O)[nH]c2ccccc12)c1ncccn1 (single isomer, unassigned) [Compound 45, (S*)-3-(6-morpholino-5-(trifluoromethyl)-1H-benzo[d]imidazol-2-yl)-4-((1-(pyrimidin-2-yl)ethyl)amino)quinolin-2(1H)-one] | 1.17 nM | 25.3 nM | 12.2 nM | 0.483 nM | 12700 nM |  |
| CCCC(Nc1c(-c2nc3ccc(N4CCOCC4)cc3[nH]2)c(=O)[nH]c2ccccc12)c1ncccn1 (single isomer, unassigned) [Compound 31a, (S*)-3-(6-morpholino-1H-benzo[d]imidazol-2-yl)-4-((1-(pyrimidin-2-yl)butyl)amino)quinolin-2(1H)-one] | 0.843 nM | 25.7 nM | 14.3 nM | 0.181 nM | 2920 nM |  |
| C[C@H](Nc1c(-c2nc3cc(C(F)(F)F)c(N4CCN(C)CC4)cc3[nH]2)c(=O)[nH]c2ccccc12)c1ccccn1 [Compound 14, (S)-3-(6-(4-methylpiperazin-1-yl)-5-(trifluoromethyl)-1H-benzo[d]imidazol-2-yl)-4-((1-(pyridin-2-yl)ethyl)amino)quinolin-2(1H)-one] | 3.38 nM | 52.2 nM | 141 nM | 2.15 nM | 3010 nM |  |
| CC(Nc1c(-c2nc3ccc(N4CCOCC4)cc3[nH]2)c(=O)[nH]c2ccccc12)c1cscn1 (single isomer, unassigned) [Compound 52a, (S*)-3-(6-morpholino-1H-benzo[d]imidazol-2-yl)-4-((1-(thiazol-4-yl)ethyl)amino)-quinolin-2(1H)-one] | 0.858 nM | 23.1 nM | 6.69 nM | 0.208 nM | 1430 nM |  |
| C[C@H](Nc1c(-c2nc3ccc(N4CCOCC4)cc3[nH]2)c(=O)[nH]c2ccc(F)cc12)c1ccccn1 [Compound 17, (S)-6-fluoro-3-(6-morpholino-1H-benzo[d]imidazol-2-yl)-4-((1-(pyridin-2-yl)ethyl)-amino)quinolin-2(1H)-one] | 4.89 nM | 58.7 nM | 114 nM | 0.997 nM | 661 nM |  |
| CC(Nc1c(-c2nc3ccc(-c4cnn(C)c4)cc3[nH]2)c(=O)[nH]c2ccccc12)c1ncccn1 (single isomer, unassigned) [Compound 53a, (S*)-3-(6-(1-methyl-1H-pyrazol-4-yl)-1H-benzo[d]imidazol-2-yl)-4-((1-(pyrimidin-2-yl)ethyl)amino)quinolin-2(1H)-one] | 0.47 nM | 9.9 nM | 8.64 nM | 0.186 nM | 1690 nM |  |
| C[C@H](Nc1c(-c2nc3cc(C(F)(F)F)c(NC4CCN(C)CC4)cc3[nH]2)c(=O)[nH]c2ccccc12)c1ccccn1 [Compound 18, (S)-3-(6-((1-methylpiperidin-4-yl)amino)-5-(trifluoromethyl)-1H-benzo[d]imidazol-2-yl)-4-((1-(pyridin-2-yl)ethyl)amino)quinolin-2(1H)-one] | 1.35 nM | 56.8 nM | 87.8 nM | 1.35 nM | 733 nM |  |
| C[C@@H](Nc1c(-c2nc3ccc(N4CCOCC4)cc3[nH]2)c(=O)[nH]c2ccccc12)c1ncccn1 [Compound 3, (R)-3-(6-morpholino-1H-benzo[d]imidazol-2-yl)-4-((1-(pyrimidin-2-yl)ethyl)-amino)quinolin-2(1H)-one] | 585 nM | 58.5 nM | 41.8 nM | 204 nM | 11000 nM |  |
